Data: PMC7733237 (Organic & biomolecular chemistry, 2009)

System: PBM cells
Assay: Cytotoxicity in uninfected PHA-stimulated human PBM cells
Conditions: read-out: Cytotoxicity (IC50) PBM cells, 6 days, cell growth

Structure (SMILES): Cc1cn([C@H]2C[C@H](N=[N+]=[N-])[C@@H](CO)O2)c(=O)[nH]c1=O [AZT, 3′-azido-3′-deoxythymidine]
- IC50: > 100 µM
